# Data published in patent US8168391B2, “Method for modulating insulin production” (Burnham Institute for Medical Research, priority 2007, dated 2012).
# Counter-ions that a name gives are not always drawn.
# Assays:
# [1] = system: insulin promoter; assay: Insulin promoter/reporter screen in the presence of a fatty acid (reversal of palmitate-induced lipotoxicity); type: cell-based, human; details: screen in presence of fatty acid (FIG. 20) vs not in presence (FIG. 19)
# Excerpt: The assays employ a cell line derived from human fetal islet cells (T6PNE) in which the cells are infected with a promoter/reporter construct. The construct is shown in FIG. 7 and incorporates an insulin promoter operably linked to an eGFP. Cells were infected and plated, and candidate libraries screened and “hit” detected as discussed in Example 1.
# To differentiate between agents that specifically act to reverse lipotoxicity as compared to generally increasing transcription of insulin a two layer screening approach was utilized. In the first layer, islet cells infected with an insulin promoter/reporter construct are screened in the absence of a fatty acid. A “hit” indicates an agent that is capable of increasing insulin transcription. In the second layer, islet cells infected with an insulin promoter/reporter construct are screened in the presence of a fatty acid. A “hit” indicates a drug that reverses the effects of the fatty acid addition, for example reduction of insulin transcription. This drugs screened in both layers may be used to identify whether the drug is specific to lipotoxicity reversal. For example, drugs that are “hits” in the second layer screen but not in the first layer screen are specific to lipotoxicity reversal.
# [2] = system: insulin promoter; assay: HTS insulin promoter/eGFP reporter screen in T6PNE cells (absence of fatty acid); type: cell-based, human; details: for activator of insulin promoter confirmed in confirmatory screen: repeat of initial screen with dose response, T6PNE cells, insulin promoter-eGFP
# Method: A library of 1000 candidate drug compounds was initially screened using NEPCs cultured in a 384-well HTS format using the following method. NEPCs were infected with promoter/reporter constructs in suspension for 6 hours. The cells were then directly plated on Collagen I coated 384-well microtiter plates in media containing 10% plasma. Monolayer formation was allowed to progress by culture for 4 days with regular media changes. Library compounds were then contacted with the cells and added at a final concentration of 5 μM and incubated for 48 hours. Image analysis was then performed using fluorescent microscopy using DAPI […] and imaging of GFP to determine promoter activation activity of individual compounds. Image analysis algorithms are further refined to eliminate auto-fluorescent debris to accurately quantify green fluorescence. The assays employ a cell line derived from human fetal islet cells ([…]) in which the cells are infected with a promoter/reporter construct. The construct is shown in FIG. 7 and incorporates an insulin promoter operably linked to an eGFP. Cells were infected and plated, and candidate libraries screened and “hit” detected as discussed in Example 1. To differentiate between agents that specifically act to reverse lipotoxicity as compared to generally increasing transcription of insulin a two layer screening approach was utilized. In the first layer, islet cells infected with an insulin promoter/reporter construct are screened in the absence of a fatty acid. A “hit” indicates an agent that is capable of increasing insulin transcription. In the second layer, islet cells infected with an insulin promoter/reporter construct are screened in the presence of a fatty acid. A “hit” indicates a drug that reverses the effects of the fatty acid addition, for example reduction of insulin transcription. This drugs screened in both layers may be used to identify whether the drug is specific to lipotoxicity reversal. For example, drugs that are “hits” in the second layer screen but not in the first layer screen are specific to lipotoxicity reversal. […]
SMILES,reversal of palmitate-induced lipotoxicity [1],other results
CC[C@H](C)C(=O)O[C@H]1C[C@@H](C)C=C2C=C[C@H](C)[C@H](CC[C@@H]3C[C@@H](O)CC(=O)O3)[C@H]21 [lovastatin],expected to reverse lipotoxicity,
CC(Cc1cccc(C(F)(F)F)c1)NCCOC(=O)c1ccccc1 (stereo not drawn) [benfluorex hydrochloride],expected to reverse lipotoxicity,
Cc1cccc(Nc2ccccc2C(=O)O)c1C [mefenamic acid],expected to reverse lipotoxicity,
CN(C)CCCN1c2ccccc2Sc2ccc(Cl)cc21 [chlorpromazine],,activator of insulin promoter confirmed in confirmatory screen [2]: confirmed
NCCc1ccc(O)c(O)c1 [dopamine],,upregulation of the insulin promoter ([2]; ChemBridge DiverSet library screen as in Example 2): upregulated the insulin promoter
CCN(CC)C(C)CN1c2ccccc2Sc2ccccc21 (stereo not drawn) [ethopropazine],,activator of insulin promoter confirmed in confirmatory screen [2]: confirmed
Clc1ccc(C(OCCN2CCCCC2)c2ccccc2)cc1 (stereo not drawn) [cloperastine hydrochloride],expected to reverse lipotoxicity,
CC1=C(/C=C/C(C)=C/C=C/C(C)=C/C=C/C=C(C)/C=C/C=C(C)/C=C/C2=C(C)CCCC2(C)C)C(C)(C)CCC1 [beta-carotene],expected to reverse lipotoxicity,
CC(=O)Oc1c(C)c(C)c2c(c1C)CCC(C)(CCC[C@H](C)CCC[C@H](C)CCCC(C)C)O2 (stereo partly drawn) [alpha-tocopheryl acetate],expected to reverse lipotoxicity,
